US20070128217A1 (priority 2003, published 2007)

Legend:
[1] = tested on: rabbit serum obtained by immunizing a rabbit with the SARS-CoV strain Frankfurt 1; format: binding; set-up: Binding of a rabbit serum to linear peptides / Binding of a rabbit serum to looped peptides / Rabbit serum linear peptides / Rabbit serum looped peptides / Binding of a rabbit serum to linear peptides of protein N of SARS-CoV Urbani (Rabbit serum linear peptides) / Binding of a rabbit serum to looped/cyclic peptides of protein N of SARS-CoV Urbani (Rabbit serum looped peptides): unit not given here
[2] = tested on: antibodies in sera from SARS patients (sera 1a, 1b, 2, 6, 37, 62, London, SARS-yellow, SARS-green); format: binding, human; set-up: Binding of serum 6 to linear peptides of protein X1 of SARS-CoV Urbani / Binding of serum 37 to linear peptides of protein X1 of SARS-CoV Urbani / Binding of serum 6 to looped/cyclic peptide (PEPSCAN-ELISA) / Binding of serum 37 to looped/cyclic peptide (PEPSCAN-ELISA) / Binding of serum 37 to looped/cyclic peptides of protein X1 of SARS-CoV Urbani / Binding of serum 6 to linear peptides of protein X2 / Binding of serum 37 to linear peptides of protein X2 / Binding of serum 37 to looped/cyclic peptides of protein X2 of SARS-CoV Urbani / Binding of serum 6 to linear peptides of protein M of SARS-CoV Urbani / Binding of serum 37 to linear peptides of protein M of SARS-CoV Urbani / Binding of serum 6 to looped/cyclic peptides of protein M of SARS-CoV Urbani / Binding of serum 37 to looped/cyclic peptides of protein M of SARS-CoV Urbani / Binding of serum 6 to linear peptides of protein X3 of SARS-CoV Urbani / Binding of serum 37 to linear peptides of protein X3 of SARS-CoV Urbani / Binding of serum 37 to looped/cyclic peptides of protein X3 of SARS-CoV Urbani / Binding of serum 6 to linear peptides of protein X4 of SARS-CoV Urbani / Binding of serum 37 to linear peptides of protein X4 of SARS-CoV Urbani / Binding of serum 37 to looped/cyclic peptides of protein X4 of SARS-CoV Urbani / Binding of serum 6 to linear peptides of protein X5 of SARS-CoV Urbani / Binding of serum 37 to linear peptides of protein X5 of SARS-CoV Urbani / Binding of serum 37 to looped/cyclic peptides of protein X5 of SARS-CoV Urbani / Binding of serum 6 to linear peptides of protein N of SARS-CoV Urbani / Binding of serum 37 to linear peptides of protein N of SARS-CoV Urbani / Binding of serum 6 to linear peptide (PEPSCAN-ELISA) / Binding of serum 1a to looped/cyclic peptides of protein N of SARS-CoV Urbani / Binding of serum 1b to looped/cyclic peptides of protein N of SARS-CoV Urbani / Binding of serum 2 to looped/cyclic peptides of protein N of SARS-CoV Urbani / Binding of serum 6 to looped/cyclic peptides of protein N of SARS-CoV Urbani / Binding of serum 37 to looped/cyclic peptides of protein N of SARS-CoV Urbani / Binding of serum 62 to looped/cyclic peptides of protein N of SARS-CoV Urbani / Binding of serum London to looped/cyclic peptides of protein N of SARS-CoV Urbani / Binding of serum SARS-green to looped/cyclic peptides of protein N of SARS-CoV Urbani: unit not given here
[3] = tested on: control sera (pooled serum of ten healthy LUMC hospital workers; commercial negative donor pooled serum from the Dutch bloodbank); format: binding, human; set-up: Binding of Control serum LUMC to linear peptides / Binding of Control serum Blood-bank to linear peptides / Binding of Control serum LUMC to looped peptides / Binding of Control Serum Blood-Bank to Looped peptides / Binding of Control serum LUMC to linear peptides of the protein M of SARS-CoV Urbani / Binding of Control serum Blood-bank to linear peptides of the protein M of SARS-CoV Urbani / Binding of Control serum LUMC to looped peptides of the protein M of SARS-CoV Urbani / Binding of Control Serum Blood-Bank to Looped peptides of the protein M of SARS-CoV Urbani: unit not given here
[4] = tested on: recombinant human anti-SARS-CoV antibody 03-018; format: binding; set-up: Binding of antibody 03-018 to linear peptides of the N protein of SARS-CoV Urbani / Binding of antibody 03-018 to looped/cyclic peptides of the N protein of SARS-CoV Urbani: unit not given here

Sequence	Binding of a rabbit serum to linear peptides of protein N of SARS-CoV Urbani (Rabbit serum linear peptides) [1]	Binding of a rabbit serum to looped/cyclic peptides of protein N of SARS-CoV Urbani (Rabbit serum looped peptides) [1]	Binding of serum 1a to linear peptides of protein N of SARS-CoV Urbani [2]	Binding of serum 1a to looped/cyclic peptides of protein N of SARS-CoV Urbani [2]	Binding of serum 1b to linear peptides of protein N of SARS-CoV Urbani [2]	Binding of serum 1b to looped/cyclic peptides of protein N of SARS-CoV Urbani [2]	Binding of serum 2 to linear peptides of protein N of SARS-CoV Urbani [2]	Binding of serum 2 to looped/cyclic peptides of protein N of SARS-CoV Urbani [2]	Binding of serum 6 to linear peptides of protein N of SARS-CoV Urbani [2]	Binding of serum 6 to looped/cyclic peptides of protein N of SARS-CoV Urbani [2]	Binding of serum 37 to linear peptides of protein N of SARS-CoV Urbani [2]	Binding of serum 37 to looped/cyclic peptides of protein N of SARS-CoV Urbani [2]	Binding of serum 62 to linear peptides of protein N of SARS-CoV Urbani [2]	Binding of serum 62 to looped/cyclic peptides of protein N of SARS-CoV Urbani [2]	Binding of serum London to linear peptides of protein N of SARS-CoV Urbani [2]	Binding of serum London to looped/cyclic peptides of protein N of SARS-CoV Urbani [2]	Binding of serum SARS-green to looped/cyclic peptides of protein N of SARS-CoV Urbani [2]	Binding of serum SARS-yellow to looped/cyclic peptides of protein N of SARS-CoV Urbani [2]	Binding of antibody 03-018 to linear peptides of the N protein of SARS-CoV Urbani [4]	Binding of antibody 03-018 to looped/cyclic peptides of the N protein of SARS-CoV Urbani [4]	further results
MSRIGMEVTPSGTWL	0.2	0.5	0.3	0.4	0.1	0.3	0.2	0.5	0.2	0.3	0.6	0.6	0.7	0.7	0.5	0.5	0.7	0.5	0.1	0.2	Binding of serum SARS-green to linear peptides of protein N of SARS-CoV Urbani [2]: 0.3; Binding of serum SARS-yellow to linear peptides of protein N of SARS-CoV Urbani [2]: 0.6; Control Serum Blood-Bank Looped peptides [3]: 0.7; Control serum Blood-bank linear peptides [3]: 0.8; Control serum LUMC linear peptides [3]: 0.7; Control serum LUMC looped peptides [3]: 0.7
PSGTWLTYHGAIKLD	0.1	0.0	0.3	0.2	0.2	0.1	0.2	0.2	0.2	0.1	1.0	0.4	0.8	0.3	0.7	0.3	0.1	0.1	0.1	0.2	Binding of serum SARS-green to linear peptides of protein N of SARS-CoV Urbani [2]: 0.6; Binding of serum SARS-yellow to linear peptides of protein N of SARS-CoV Urbani [2]: 0.7; Control Serum Blood-Bank Looped peptides [3]: 0.4; Control serum Blood-bank linear peptides [3]: 0.7; Control serum LUMC linear peptides [3]: 0.6; Control serum LUMC looped peptides [3]: 0.4
SGKGQQQQGQTVTKK	0.2	0.4	–	0.3	–	0.2	–	0.3	–	0.3	–	0.6	–	0.5	–	0.4	0.2	0.3	0.1	0.2	Binding of serum 1a to linear peptide (PEPSCAN-ELISA) [2]: 0.3; Binding of serum 1b to linear peptide (PEPSCAN-ELISA) [2]: 0.1; Binding of serum 2 to linear peptide (PEPSCAN-ELISA) [2]: 0.2; Binding of serum 6 to linear peptide (PEPSCAN-ELISA) [2]: 0.4; Binding of serum 37 to linear peptide (PEPSCAN-ELISA) [2]: 0.7; Binding of serum 62 to linear peptide (PEPSCAN-ELISA) [2]: 0.9; Binding of serum London to linear peptide (PEPSCAN-ELISA) [2]: 0.6; Binding of serum SARS-green to linear peptide (PEPSCAN-ELISA) [2]: 0.5; Binding of serum SARS-yellow to linear peptide (PEPSCAN-ELISA) [2]: 0.7; Binding of Control Serum Blood-Bank to Looped peptides [3]: 0.6; Binding of Control serum Blood-bank to linear peptides [3]: 1.0; Binding of Control serum LUMC to linear peptides [3]: 1.1; Binding of Control serum LUMC to looped peptides [3]: 0.6
GRRGPEQTQGNFGDQ	0.1	0.2	–	0.4	–	0.3	–	0.4	–	0.2	–	0.5	–	0.6	–	0.5	0.4	0.5	0.1	0.2	Recognition of the peptide by sera of SARS-CoV infected individuals, and form (linear, looped/cyclic) in which it is recognized [2]: recognized in linear form; Binding of Control Serum Blood-Bank to Looped peptides [3]: 0.6; Binding of Control serum Blood-bank to linear peptides [3]: 0.6; Binding of Control serum LUMC to linear peptides [3]: 0.6; Binding of Control serum LUMC to looped peptides [3]: 0.6
VTPSGTWLTYHGAIK	0.1	0.1	0.3	0.2	0.1	0.1	0.2	0.2	0.2	0.1	0.7	0.4	0.8	0.3	0.7	0.3	0.0	0.2	0.1	0.2	Binding of serum SARS-green to linear peptides of protein N of SARS-CoV Urbani [2]: 0.5; Binding of serum SARS-yellow to linear peptides of protein N of SARS-CoV Urbani [2]: 0.5; Control Serum Blood-Bank Looped peptides [3]: 0.3; Control serum Blood-bank linear peptides [3]: 0.8; Control serum LUMC linear peptides [3]: 0.6; Control serum LUMC looped peptides [3]: 0.3
